# Columns and labels:
# [1] = Sensory panel rating of pea protein solution at 3% with fatty acid at 1000 ppm; conditions: 1000 ppm in pea protein, 3 wt% in water, no sugar; mean of eight panelists, scale 0 to 5
# Protocol: (§1) Liquid solutions of pea protein were prepared (3 percent by weight in water) without sugar added. Control and test samples were prepared. To the test sample 10-undecenoic acid was added at a concentration of 1000 ppm. The control and test samples were evaluated by eight sensory panelists to rate various characteristics of the control sample and the test sample on a scale from 0 to 5.
# [2] = Sensory panel rating of oat/pea protein blend solution at 6% with fatty acid at 400 ppm; conditions: 400 ppm in oat/pea protein blend (1:28 w/w), about 6 wt% in water, no sugar; mean of eight panelists, scale 0 to 5
# Protocol: (§2) Liquid solutions of a blend of oat and pea protein (1:28 w/w) were prepared (about 6 percent by weight in water) without sugar added. Control and test samples were prepared. To the test sample 10-undecenoic acid was added at a concentration of 400 ppm. The control and test samples were evaluated by eight sensory panelists to rate various characteristics of the control sample and the test sample on a scale from 0 to 5.
# [3] = Sensory panel rating of fava bean protein solution at 6% with fatty acid at 400 ppm; conditions: 400 ppm in fava bean protein, 6 wt% in water, no sugar; mean of 18 panelists, scale 0 to 5
# Protocol: as §1, with “of fava bean” for “of pea”, “prepared (6” for “prepared (3”, “of 400” for “of 1000”, “by 18” for “by eight”
# [4] = Sensory panel rating of pea protein solution at 3% with fatty acid at 700 ppm; conditions: 700 ppm in pea protein, 3 wt% in water, no sugar; mean of eight panelists, scale 0 to 5
# Protocol: as §1, with “700” for “1000”
# [5] = Sensory panel rating of chickpea protein solution at 6% with fatty acid at 700 ppm; conditions: 700 ppm in chickpea protein, 6 wt% in water, no sugar; mean of 18 panelists, scale 0 to 5
# Protocol: as §1, with “of xchickpea” for “of pea”, “prepared (6” for “prepared (3”, “of 700” for “of 1000”, “by 18” for “by eight”
# [6] = Sensory panel rating of oat/pea protein blend solution at 3% with fatty acid at 400 ppm; conditions: 400 ppm in oat/pea protein blend (1:14 w/w), about 3 wt% in water, no sugar; mean of eight panelists, scale 0 to 5
# Protocol: as §2, with “(1:14” for “(1:28”, “3” for “6”
structure (smiles),measurement,setting,value
"C=CCCCCCCCCC(=O)O [10-undecenoic acid, Undec-10-enoic acid]",Astringent,[1],2.1
same,Bitter,[1],1.7
same,Cereal Note,[1],2.7
same,Creaminess,[1],2.1
same,Fattiness,[1],2.0
same,Green/Vegetal Note,[1],2.0
same,Mouthcoating,[1],2.9
same,Sweet,[1],3.4
same,Thickness,[1],2.1
same,Astringent,[2],1.8
same,Bitter,[2],1.8
same,Cereal Note,[2],2.8
same,Creaminess,[2],2.4
same,Fattiness,[2],2.3
same,Green/Vegetal Note,[2],2.3
same,Mouthcoating,[2],3.3
same,Sweet,[2],3.1
same,Thickness,[2],2.9
same,Astringent,[3],3.2
same,Bitter,[3],2.4
same,Cereal Note,[3],2.3
same,Creaminess,[3],1.2
same,Fattiness,[3],1.3
same,Green/Vegetal Note,[3],2.7
same,Mouthcoating,[3],1.8
same,Sweet,[3],2.3
same,Thickness,[3],1.2
same,Astringent,[4],2.6
same,Bitter,[4],2.1
same,Cereal Note,[4],2.4
same,Creaminess,[4],1.8
same,Fattiness,[4],1.9
same,Green/Vegetal Note,[4],2.4
same,Mouthcoating,[4],2.3
same,Sweet,[4],3.1
same,Thickness,[4],2.0
same,Astringent,[5],2.4
same,Bitter,[5],2.1
same,Cereal Note,[5],2.7
same,Creaminess,[5],2.3
same,Fattiness,[5],1.9
same,Green/Vegetal Note,[5],2.8
same,Mouthcoating,[5],2.4
same,Sweet,[5],2.8
same,Thickness,[5],1.6
same,Astringent,[6],1.8
same,Bitter,[6],1.7
same,Cereal Note,[6],2.5
same,Creaminess,[6],1.6
same,Fattiness,[6],1.4
same,Green/Vegetal Note,[6],2.1
same,Mouthcoating,[6],2.0
same,Sweet,[6],3.6
same,Thickness,[6],1.9
